# In US20010029304A1, “Cyclopentane heptan (ENE)OIC acid, 2-heteroarylalkenyl derivatives as therapeutic agents” (ALLERGAN, priority 1996, published 2001):
# Legend:
# EP4 = target: T1, EP4 (Oryctolagus cuniculus, UniProt Q28691); experiment: EP4-activity: relaxation of smooth muscle of isolated rabbit jugular vein; type: cell-based; details: nM printed only with EC50 in the table head
# T1 construct: smooth muscle of isolated rabbit jugular vein; from tissue; host or cells: isolated rabbit jugular vein smooth muscle
# T1 sequence (Q28691 whole entry): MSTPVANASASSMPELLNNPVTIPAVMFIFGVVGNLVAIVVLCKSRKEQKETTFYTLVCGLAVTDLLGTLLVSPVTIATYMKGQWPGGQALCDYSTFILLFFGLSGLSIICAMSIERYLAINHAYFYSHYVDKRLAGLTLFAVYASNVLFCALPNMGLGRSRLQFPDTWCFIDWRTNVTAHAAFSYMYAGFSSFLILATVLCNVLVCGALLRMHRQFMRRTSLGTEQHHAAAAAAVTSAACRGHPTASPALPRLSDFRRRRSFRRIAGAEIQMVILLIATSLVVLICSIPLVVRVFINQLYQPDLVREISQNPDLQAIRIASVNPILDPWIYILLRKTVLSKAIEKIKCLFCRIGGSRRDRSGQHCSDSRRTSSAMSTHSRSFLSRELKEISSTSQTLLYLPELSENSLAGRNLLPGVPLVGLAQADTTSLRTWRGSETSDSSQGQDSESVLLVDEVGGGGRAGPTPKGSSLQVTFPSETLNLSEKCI
# Protocol: (§1) Activity at different prostanoid receptors was measured in vitro in isolated smooth muscle preparations. FP-activity was measured as contraction of the isolated feline iris sphincter. EP4-activity was measured as relaxation of smooth muscle of isolated rabbit jugular vein. TP-vasoconstrictor activity was measured as contraction of rings of the isolated rat thoracic aorta. Effects on platelets from healthy human donors were measured by incubating platelet-rich plasma with the compounds described herein. Inhibition of aggregation was determined by the ability of the compounds described herein to inhibit platelet aggregation in platelet-rich plasma induced by 20 μM adenosine diphosphate (ADP).
# TP = target: T2, TP (Rattus norvegicus, UniProt P34978); experiment: TP-vasoconstrictor activity: contraction of rings of the isolated rat thoracic aorta; type: cell-based; details: EC50 (nM) printed in the first part of the table head
# T2 construct: rings of the isolated rat thoracic aorta; from tissue; host or cells: rings of isolated rat thoracic aorta
# T2 sequence (P34978 1-341): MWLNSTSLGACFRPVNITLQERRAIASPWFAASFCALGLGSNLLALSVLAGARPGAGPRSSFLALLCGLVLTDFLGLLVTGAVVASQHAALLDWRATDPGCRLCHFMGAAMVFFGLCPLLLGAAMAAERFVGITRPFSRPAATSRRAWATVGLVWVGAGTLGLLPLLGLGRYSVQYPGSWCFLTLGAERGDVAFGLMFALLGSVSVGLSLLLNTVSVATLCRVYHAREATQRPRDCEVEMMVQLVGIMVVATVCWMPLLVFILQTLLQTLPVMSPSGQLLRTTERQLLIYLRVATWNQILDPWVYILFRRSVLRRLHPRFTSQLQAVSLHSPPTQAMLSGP
# Protocol: as §1
# Dog intraocular pressure = Dog intraocular pressure (applanation pneumatonometry) with hyperemia/miosis; type: in vivo; details: for Dog IOP (1 day): 25 μl to the ocular surface, IOP before and at 6 hours after drug; for Hyp: first part of Hyp/Mlosis cell; for Mlosis: second part of Hyp/Mlosis cell
# Protocol: The compounds were prepared at the said concentrations in a vehicle comprising 0.1% polysorbate 80 and 10 mM tris (hydroxy methyl) aminomethane hydrochloride (TRIS) base. Dogs were treated by administering 25 μl to the ocular surface, the contralateral eye received vehicle as a control. Intraocular pressure was measured by applanation pneumatonometry. Dog intraocular pressure was measured immediately before drug administration and at 6 hours thereafter.
Compound,IC25 EP4 (EP4),EC50 (TP),Dog IOP (1 day) (Dog intraocular pressure; 0.1%),Hyp (Dog intraocular pressure; 0.1%),Mlosis (Dog intraocular pressure; 0.1%),Dog IOP (1 day) (Dog intraocular pressure; 0.01%),Hyp (Dog intraocular pressure; 0.01%),Mlosis (Dog intraocular pressure; 0.01%)
O=C(O)CCC/C=C\C[C@H]1C(O)CC(O)C1/C=C/C(O)CCc1sc2ccccc2c1Cl (some centres unmarked),21190 nM,–,–,–,–,–,–,–
O=C(O)CCC/C=C\C[C@H]1C(O)CC(O)C1/C=C/C(O)CCc1cc(Br)c(Br)s1 (some centres unmarked),23 nM,692 nM,–,–,–,–,–,–
Cc1ccc(CCC(O)/C=C/C2C(O)CC(O)[C@@H]2C/C=C\CCCC(=O)O)o1 (some centres unmarked),23 nM,> 10000 nM,0.1%/−2.7,1.13,pinpoint,–,–,–
NC(=O)CCC/C=C\C[C@H]1C(O)CC(O)C1/C=C/C(O)CCc1cc(Br)c(Br)s1 (some centres unmarked),165 nM,–,–,–,–,–,–,–
Cc1ccc(CCC(O)/C=C/C2C(O)CC(O)[C@@H]2C/C=C\CCCC(N)=O)o1 (some centres unmarked),3760 nM,–,0.1%/−2.1,0.75,pinpoint,–,–,–
NC(=O)CCC/C=C\C[C@H]1C(O)CC(O)C1/C=C/C(O)CCc1ccco1 (some centres unmarked),620 nM,–,−4.4,1.0,pinpoint,−3.2,1.5,pinpoint
Cc1cc(CCC(O)/C=C/C2C(O)CC(O)[C@@H]2C/C=C\CCCC(N)=O)cs1 (some centres unmarked),1630 nM,–,0.1%/−3.6,0.6,pinpoint,–,–,–
COC(/C=C/C1C(O)CC(O)[C@@H]1C/C=C\CCCC(=O)O)CCc1ccco1 (some centres unmarked),57 nM,–,–,–,–,–,–,–
COC(/C=C/C1C(O)CC(O)[C@@H]1C/C=C\CCCC(=O)O)CCc1ccsc1C (some centres unmarked),100 nM,–,–,–,–,–,–,–
